Experimental data published in patent publication US11109593B2, “Isoxazolin-5-one derivative and herbicide containing same as active ingredient” (HOKKO CHEMICAL INDUSTRY CO., LTD., priority 2017, dated 2021).

Key:
Format in all cases: in vivo
Scirpus juncoides [1] = test: Test Example 2: herbicidal effect test by treatment during growing period in paddy rice cultivation (seven days after seeding); details: 120 g/10a active ingredient, assessed 14 days after treatment, dry weight vs untreated area
Summary of the method: (§1)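 Paddy soil in Wagner pots with compound fertilizer, puddled; 30 seeds per species sown at 0–1 cm, flooded ~3 cm, greenhouse. Seven days after seeding, water-diluted emulsions were dropped into the water at 120 g active ingredient per 10 ares. Duplicate pots; herbicidal rate from dry weight versus untreated, 14 days after treatment.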

Echinochloa crus-galli [2] = test: as above; details: 120 g/10a active ingredient, assessed 14 days after treatment, dry weight vs untreated area
Summary of the method: as §1

[3] = system: broad leaf weeds (Lindernia pyxidaria and Monochoria vaginalis); test: as above; details: 120 g/10a active ingredient, assessed 14 days after treatment, dry weight vs untreated area
Summary of the method: as §1

Amaranthus viridis [4] = test: Test Example 4: herbicidal effect test by treatment of leave and stem in dry field farming (seven days after seeding); details: 120 g/10a active ingredient; emulsion sprayed seven days after seeding; evaluated 14 days after treatment
Summary of the method: (§2)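 Duplicate pots were scored 14 days post-spray by dry weight, herbicidal rate = {1 − treated/untreated average dry weight} × 100. The water-diluted emulsion, equivalent to 120 g active ingredient per 10 ares in 100 L, was applied seven days after sowing 20 seeds each into the upper 1 cm of alluvial soil.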

Echinochloa crus-galli [5] = test: as above; details: 120 g/10a active ingredient; emulsion sprayed seven days after seeding; evaluated 14 days after treatment
Summary of the method: as §2

southern crabgrass [6] = test: as above; details: 120 g/10a active ingredient; emulsion sprayed seven days after seeding; evaluated 14 days after treatment
Summary of the method: as §2

Chenopodium album [7] = test: as above; details: 120 g/10a active ingredient; emulsion sprayed seven days after seeding; evaluated 14 days after treatment
Summary of the method: as §2

Scirpus juncoides [8] = test: Test Example 1: herbicidal effect test by treatment of rice paddy soil (immediately after seeding); details: 120 g/10a active ingredient, dry weight vs untreated area, 14 days after treatment
Summary of the method: (§3)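 Paddy soil in pots with compound fertilizer, puddled; 30 seeds per species sown at 0–1 cm, flooded ~3 cm, greenhouse. Water-diluted emulsions dropped onto water immediately after seeding at 120 g active ingredient per 10 ares, duplicate. Herbicidal rate (%) from plant dry weight versus untreated, 14 days after treatment.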

Echinochloa crus-galli [9] = test: as above; details: 120 g/10a active ingredient, dry weight vs untreated area, 14 days after treatment
Summary of the method: as §3

[10] = system: broad leaf weeds (Lindernia pyxidaria and Monochoria vaginalis); test: as above; details: 120 g/10a active ingredient, dry weight vs untreated area, 14 days after treatment
Summary of the method: as §3

Amaranthus viridis [11] = test: Test Example 3: herbicidal effect test by treatment of dry field farming soil (one day after seeding); details: 120 g/10a active ingredient, evaluated 14 days after treatment
Summary of the method: (§4)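 Pre-emergence soil treatment: alluvial dry-field soil, 20 seeds per species mixed into top 1 cm, emulsion diluted in water sprayed one day after seeding at 100 L per 10 ares (120 g active ingredient per 10 ares). Duplicate pots; herbicidal rate (%) from dry weight vs untreated at 14 days.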

Echinochloa crus-galli [12] = test: as above; details: 120 g/10a active ingredient, evaluated 14 days after treatment
Summary of the method: as §4

southern crabgrass [13] = test: as above; details: 120 g/10a active ingredient, evaluated 14 days after treatment
Summary of the method: as §4

Chenopodium album [14] = test: as above; details: 120 g/10a active ingredient, evaluated 14 days after treatment
Summary of the method: as §4

| SMILES | Herbicidal rate (%) Scirpus juncoides (Scirpus juncoides [1]) | Herbicidal rate (%) Echinochloa crus-galli (Echinochloa crus-galli [2]) | Herbicidal rate (%) Lindernia pyxidaria [3] | Herbicidal rate (%) Monochoria vaginalis [3] | herbicidal effect (herbicidal rate), Amaranthus viridis (Amaranthus viridis [4]) | herbicidal effect (herbicidal rate), Echinochloa crus-galli (Echinochloa crus-galli [5]) | herbicidal effect (herbicidal rate), southern crabgrass (southern crabgrass [6]) | herbicidal effect (herbicidal rate), Chenopodium album (Chenopodium album [7]) | Herbicidal rate (%) Scirpus juncoides (Scirpus juncoides [8]) | Herbicidal rate (%) Echinochloa crus-galli (Echinochloa crus-galli [9]) | Herbicidal rate (%) Lindernia pyxidaria [10] | Herbicidal rate (%) Monochoria vaginalis [10] | herbicidal rate, Amaranthus viridis (Amaranthus viridis [11]) | herbicidal rate, Echinochloa crus-galli (Echinochloa crus-galli [12]) | herbicidal rate, southern crabgrass (southern crabgrass [13]) | herbicidal rate, Chenopodium album (Chenopodium album [14]) |
| --- | --- | --- | --- | --- | --- | --- | --- | --- | --- | --- | --- | --- | --- | --- | --- | --- |
| CC(=O)N(c1ccccc1Cc1c(C)n(CC(C)(C)C)oc1=O)S(=O)(=O)C(F)(F)F [Compound 1-298] | 90% | 90% | 90% | 90% | 40% | 90% | 90% | 40% | 90% | 90% | 90% | 90% | 90% | 90% | 90% | 90% |
| CSCCn1oc(=O)c(Cc2ccccc2N(C(=O)OC(C)C)S(=O)(=O)C(F)(F)F)c1C [Compound 1-652] | 90% | 90% | 90% | 90% | 40% | 90% | 90% | 40% | 90% | 90% | 90% | 90% | 90% | 90% | 90% | 90% |
| Cc1c(Cc2ccccc2NS(=O)(=O)C(F)(F)F)c(=O)on1C(C)Cc1ccccc1 (stereo not drawn) [Compound 1-218] | 90% | 90% | 40% | 80% | 60% | 90% | 40% | 40% | 90% | 100% | 90% | 90% | 40% | 80% | 40% | 40% |
| CCC(C)n1oc(=O)c(Cc2ccccc2N(C(=O)c2ccccc2)S(=O)(=O)C(F)(F)F)c1C (stereo not drawn) [Compound 1-474] | 90% | 90% | 90% | 90% | 40% | 90% | 90% | 40% | 90% | 90% | 90% | 90% | 90% | 90% | 90% | 90% |
| Cc1c(Cc2ccccc2N(C(=O)OCc2ccccc2)S(=O)(=O)C(F)(F)F)c(=O)on1CC(C)C [Compound 1-785] | 90% | 90% | 90% | 90% | 40% | 90% | 90% | 40% | 90% | 90% | 90% | 90% | 90% | 90% | 90% | 90% |
| Cc1c(Cc2ccccc2N(C(=O)C(C)C)S(=O)(=O)C(F)(F)F)c(=O)on1C(C)(C)C [Compound 1-329] | 90% | 90% | 90% | 90% | 40% | 90% | 90% | 40% | 90% | 90% | 90% | 90% | 90% | 90% | 90% | 90% |
| CCC(CC)Cn1oc(=O)c(Cc2ccccc2NS(=O)(=O)C(F)(F)F)c1C [Compound 1-113] | 90% | 90% | 60% | 80% | 60% | 80% | 60% | 40% | 100% | 100% | 100% | 100% | 80% | 90% | 90% | 100% |
| CCCCC(C)n1oc(=O)c(Cc2ccccc2N(S(=O)(=O)C(F)(F)F)S(=O)(=O)C(F)(F)F)c1C (stereo not drawn) [Compound 1-977] | 90% | 100% | 80% | 90% | 60% | 90% | 80% | 80% | 90% | 100% | 100% | 100% | 70% | 80% | 80% | 50% |
| CCc1c(Cc2ccccc2NS(=O)(=O)C(F)(F)F)c(=O)on1C(C)C [Compound 1-63] | 90% | 80% | 80% | 90% | 40% | 90% | 60% | 60% | 100% | 90% | 100% | 100% | 40% | 90% | 90% | 40% |
